The values that follow come from patent US9834571B2, “Compounds for inhibiting cell proliferation in EGFR-driven cancers” (ARIAD Pharmaceuticals, Inc., priority 2012, dated 2017).

The target of assay [1] is EGFR L858R (Homo sapiens, UniProt P00533, L858R). In words: Kinase inhibitory activity against EGFR bearing the L858R mutation. Type of assay: biochemical. Particulars: 10 μM ATP, read-out: IC50 for kinase inhibition, EGFR L858R. As for the experimental part: (§1) Kinase inhibitory activity of the compounds was measured against human EGFR (native sequence) and against EGFR bearing the L858R mution and the L858R/T790M double mutation (EGFR, L858R, and L858R/T790M, respectively in Table 1). Additional assays can be conducted with EGFR deletion mutants such as delE746-A750 with or without the additional T790M mutation. Assay conditions included 10 pt curves with 3 μM top concentration (singlicates) and 10 μM ATP.

Assay [2] concerns the target EGFR L858R/T790M (Homo sapiens, UniProt P00533, L858R/T790M). Put plainly: Kinase inhibitory activity against EGFR bearing the L858R/T790M double mutation. It is filed as biochemical. The note with it: 10 μM ATP, read-out: IC50 for kinase inhibition, EGFR L858R T790M. As for the experimental part: as §1
For assay [3], the target named is human EGFR (native sequence) (Homo sapiens, UniProt P00533). In words: Kinase inhibitory activity against human EGFR (native sequence). Type of assay: biochemical. Particulars: 10 μM ATP, read-out: IC50 for kinase inhibition, EGFR. As for the experimental part: as §1
The test system of assay [4] is BaF3 cells expressing wildtype EGFR. In words: Antiproliferative activity (MTT) against control BaF3 cells expressing wildtype EGFR. It is filed as cell-based. The note with it: Mus musculus. As for the experimental part: (§2) We also assessed the antiproliferative activity of compounds of Formula (I) against BaF3 cells expressing the target EGFR mutations or control (i.e., cell lines expressing wildtype EGFR). Assays were conducted using MTT.

In assay [5] the target is T1, BaF3 cells expressing the target EGFR mutations (Homo sapiens, UniProt P00533, T790M/L858R, cells depend on it).
T1 construct: IC50, BAF3 EGFR L858R-T790M PURO POOL; other: BAF3 EGFR L858R-T790M PURO POOL cells, MTT; IC50, BAF3 EGFR L858R-T790M PURO POOL; other: BAF3 EGFR L858R-T790M PURO POOL cells; MTT
Put plainly: Antiproliferative activity (MTT) against BaF3 cells expressing the target EGFR mutations. It is filed as cell-based. Particulars: BAF3 EGFR L858R-T790M PURO POOL cells, read-out: IC50, BAF3 EGFR L858R-T790M PURO POOL. How it is done:
as §2

Assay [6] deals with T2, BaF3 cells expressing the target EGFR mutations (Homo sapiens, UniProt P00533, T790M, cells depend on it, form not given).
T2 construct: IC50, BAF3 EGFR DEL T790M PURO POOL; other: BAF3 EGFR DEL T790M PURO POOL cells, MTT; other: BAF3 EGFR DEL T790M PURO POOL cells; MTT
Described as above. Type of assay: cell-based. Particulars: BAF3 EGFR DEL T790M PURO POOL cells, read-out: IC50, BAF3 EGFR DEL T790M PURO POOL. As for the experimental part:
as §2

Where [7] appears, read: EGFR L858R/T790M double mutation.
Setting [8] is: 10 pt curves, 3 μM top concentration.

Read-outs that look alike come from different tables or passages of the source.

T2 sequence (P00533 with tags, fused parts or gaps DEL746-750/T790M, form open): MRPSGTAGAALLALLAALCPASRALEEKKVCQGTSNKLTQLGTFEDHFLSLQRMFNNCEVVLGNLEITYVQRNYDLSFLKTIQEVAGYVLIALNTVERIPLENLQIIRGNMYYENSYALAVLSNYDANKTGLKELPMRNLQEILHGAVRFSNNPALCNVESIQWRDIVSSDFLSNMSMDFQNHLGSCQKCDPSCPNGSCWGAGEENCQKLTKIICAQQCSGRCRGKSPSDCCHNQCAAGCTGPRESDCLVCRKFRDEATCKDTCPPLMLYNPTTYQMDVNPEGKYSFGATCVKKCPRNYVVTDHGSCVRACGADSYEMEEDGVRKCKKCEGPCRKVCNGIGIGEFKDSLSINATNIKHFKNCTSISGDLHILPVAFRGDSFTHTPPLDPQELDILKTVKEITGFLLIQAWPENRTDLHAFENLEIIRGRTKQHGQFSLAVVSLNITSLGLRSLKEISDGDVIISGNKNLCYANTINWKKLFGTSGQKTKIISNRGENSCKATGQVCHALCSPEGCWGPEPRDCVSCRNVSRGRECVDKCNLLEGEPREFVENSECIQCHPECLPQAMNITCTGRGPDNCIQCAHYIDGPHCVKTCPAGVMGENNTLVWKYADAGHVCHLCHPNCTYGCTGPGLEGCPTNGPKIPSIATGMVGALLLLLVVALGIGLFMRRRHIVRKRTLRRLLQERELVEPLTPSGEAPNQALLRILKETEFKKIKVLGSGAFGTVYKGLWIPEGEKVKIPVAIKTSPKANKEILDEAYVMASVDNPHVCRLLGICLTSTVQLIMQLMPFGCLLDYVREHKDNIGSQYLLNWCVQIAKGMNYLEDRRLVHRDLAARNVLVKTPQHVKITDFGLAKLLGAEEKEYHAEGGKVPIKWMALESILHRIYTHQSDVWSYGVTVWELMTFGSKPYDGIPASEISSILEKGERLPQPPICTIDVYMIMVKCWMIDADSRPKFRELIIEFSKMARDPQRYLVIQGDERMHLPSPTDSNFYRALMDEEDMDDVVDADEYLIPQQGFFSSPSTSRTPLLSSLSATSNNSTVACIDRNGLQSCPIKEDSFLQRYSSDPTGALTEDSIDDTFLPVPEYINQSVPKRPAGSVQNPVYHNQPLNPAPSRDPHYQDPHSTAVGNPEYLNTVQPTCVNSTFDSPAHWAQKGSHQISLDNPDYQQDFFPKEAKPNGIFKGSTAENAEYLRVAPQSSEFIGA
Sequence of EGFR L858R (P00533 25-1210 L858R): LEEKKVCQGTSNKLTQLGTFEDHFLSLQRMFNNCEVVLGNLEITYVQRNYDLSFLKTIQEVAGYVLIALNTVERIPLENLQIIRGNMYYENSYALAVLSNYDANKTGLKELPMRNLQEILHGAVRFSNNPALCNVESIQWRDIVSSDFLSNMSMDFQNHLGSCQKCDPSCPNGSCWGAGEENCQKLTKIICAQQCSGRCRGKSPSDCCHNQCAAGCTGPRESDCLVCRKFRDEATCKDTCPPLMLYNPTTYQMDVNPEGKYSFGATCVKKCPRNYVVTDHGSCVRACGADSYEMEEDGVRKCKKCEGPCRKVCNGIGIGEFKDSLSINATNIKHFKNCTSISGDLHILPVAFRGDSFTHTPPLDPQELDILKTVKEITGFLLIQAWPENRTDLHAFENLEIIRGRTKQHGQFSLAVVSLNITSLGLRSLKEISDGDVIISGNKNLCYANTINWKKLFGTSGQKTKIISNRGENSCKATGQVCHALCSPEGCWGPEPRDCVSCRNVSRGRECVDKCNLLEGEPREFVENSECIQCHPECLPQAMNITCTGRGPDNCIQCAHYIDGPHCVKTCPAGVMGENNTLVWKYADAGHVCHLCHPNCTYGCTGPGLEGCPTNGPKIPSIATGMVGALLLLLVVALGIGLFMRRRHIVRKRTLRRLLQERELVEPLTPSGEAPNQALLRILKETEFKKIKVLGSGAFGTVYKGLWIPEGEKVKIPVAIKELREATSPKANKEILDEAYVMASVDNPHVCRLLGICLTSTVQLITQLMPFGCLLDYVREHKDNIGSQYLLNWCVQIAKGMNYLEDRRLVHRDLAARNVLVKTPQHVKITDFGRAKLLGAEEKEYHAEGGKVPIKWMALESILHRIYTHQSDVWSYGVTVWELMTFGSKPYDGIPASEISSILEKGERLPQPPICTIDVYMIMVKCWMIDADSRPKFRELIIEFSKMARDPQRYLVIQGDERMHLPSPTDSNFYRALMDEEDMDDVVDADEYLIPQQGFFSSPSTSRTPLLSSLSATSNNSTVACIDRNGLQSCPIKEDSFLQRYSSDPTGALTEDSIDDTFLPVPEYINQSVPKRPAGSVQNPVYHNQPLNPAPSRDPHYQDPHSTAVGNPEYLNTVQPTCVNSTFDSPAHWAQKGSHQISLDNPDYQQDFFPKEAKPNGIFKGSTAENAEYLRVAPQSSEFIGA
Sequence of human EGFR (native sequence) (P00533 25-1210): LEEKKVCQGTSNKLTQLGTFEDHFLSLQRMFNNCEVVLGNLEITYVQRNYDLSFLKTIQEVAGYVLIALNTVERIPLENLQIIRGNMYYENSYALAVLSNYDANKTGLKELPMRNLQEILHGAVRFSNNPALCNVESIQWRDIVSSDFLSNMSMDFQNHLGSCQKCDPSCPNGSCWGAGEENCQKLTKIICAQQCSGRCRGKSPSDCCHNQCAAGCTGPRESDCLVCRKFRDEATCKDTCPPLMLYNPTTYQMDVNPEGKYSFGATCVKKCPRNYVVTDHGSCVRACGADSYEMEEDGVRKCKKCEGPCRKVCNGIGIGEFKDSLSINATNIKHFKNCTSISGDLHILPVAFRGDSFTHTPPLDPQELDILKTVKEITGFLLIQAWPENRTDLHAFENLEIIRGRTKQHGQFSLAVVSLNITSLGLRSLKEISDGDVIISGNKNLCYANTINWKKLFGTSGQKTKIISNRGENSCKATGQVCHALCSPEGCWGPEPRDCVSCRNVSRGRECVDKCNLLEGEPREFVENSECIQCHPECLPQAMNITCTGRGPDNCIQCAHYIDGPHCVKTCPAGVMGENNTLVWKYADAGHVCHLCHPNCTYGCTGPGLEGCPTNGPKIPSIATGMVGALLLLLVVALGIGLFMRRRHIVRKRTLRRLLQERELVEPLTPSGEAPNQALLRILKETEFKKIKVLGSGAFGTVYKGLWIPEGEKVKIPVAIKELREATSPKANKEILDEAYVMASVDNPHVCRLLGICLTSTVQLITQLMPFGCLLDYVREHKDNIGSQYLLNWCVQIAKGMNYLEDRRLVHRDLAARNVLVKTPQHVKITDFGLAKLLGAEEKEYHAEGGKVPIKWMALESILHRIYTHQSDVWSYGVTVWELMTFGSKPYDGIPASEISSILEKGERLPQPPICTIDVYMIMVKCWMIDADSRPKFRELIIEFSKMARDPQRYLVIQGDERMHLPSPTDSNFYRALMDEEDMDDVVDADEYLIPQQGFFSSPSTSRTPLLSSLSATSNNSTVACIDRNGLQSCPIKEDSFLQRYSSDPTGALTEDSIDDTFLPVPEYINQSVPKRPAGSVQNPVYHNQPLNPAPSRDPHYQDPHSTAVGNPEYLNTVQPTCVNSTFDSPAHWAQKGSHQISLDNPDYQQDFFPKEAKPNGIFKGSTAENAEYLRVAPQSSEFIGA
Sequence of EGFR L858R/T790M (P00533 25-1210 T790M/L858R): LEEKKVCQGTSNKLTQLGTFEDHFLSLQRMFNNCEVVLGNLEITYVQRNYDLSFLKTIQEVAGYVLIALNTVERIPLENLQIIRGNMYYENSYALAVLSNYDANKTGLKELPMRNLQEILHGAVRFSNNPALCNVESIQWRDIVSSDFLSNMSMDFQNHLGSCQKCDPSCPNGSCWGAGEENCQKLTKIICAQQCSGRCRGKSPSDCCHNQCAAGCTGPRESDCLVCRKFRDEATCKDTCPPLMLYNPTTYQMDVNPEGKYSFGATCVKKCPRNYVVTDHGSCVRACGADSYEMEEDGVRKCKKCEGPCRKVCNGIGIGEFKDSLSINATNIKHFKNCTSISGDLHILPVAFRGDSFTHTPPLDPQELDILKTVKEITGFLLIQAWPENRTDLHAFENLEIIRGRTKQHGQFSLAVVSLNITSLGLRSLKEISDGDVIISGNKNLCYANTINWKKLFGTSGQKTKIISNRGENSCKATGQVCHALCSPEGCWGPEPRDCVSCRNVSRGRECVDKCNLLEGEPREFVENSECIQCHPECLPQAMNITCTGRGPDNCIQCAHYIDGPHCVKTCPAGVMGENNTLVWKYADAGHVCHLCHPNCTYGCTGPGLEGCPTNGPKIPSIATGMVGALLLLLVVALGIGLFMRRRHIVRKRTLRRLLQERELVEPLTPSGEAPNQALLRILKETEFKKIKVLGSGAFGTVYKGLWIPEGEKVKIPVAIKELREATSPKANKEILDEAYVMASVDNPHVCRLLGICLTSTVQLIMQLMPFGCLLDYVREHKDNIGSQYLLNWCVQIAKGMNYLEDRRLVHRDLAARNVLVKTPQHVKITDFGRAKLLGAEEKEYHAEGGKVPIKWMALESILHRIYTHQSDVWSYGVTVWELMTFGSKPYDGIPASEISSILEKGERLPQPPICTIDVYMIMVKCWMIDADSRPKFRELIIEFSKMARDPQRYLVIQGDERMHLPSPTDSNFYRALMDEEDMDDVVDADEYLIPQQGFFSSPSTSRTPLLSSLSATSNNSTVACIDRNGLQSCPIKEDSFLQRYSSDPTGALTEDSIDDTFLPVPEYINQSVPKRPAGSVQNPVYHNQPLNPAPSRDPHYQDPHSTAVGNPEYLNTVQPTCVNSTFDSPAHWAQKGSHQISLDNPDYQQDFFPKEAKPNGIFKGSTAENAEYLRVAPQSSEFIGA

As to `C=CC(=O)Nc1cc(Nc2ncc(Cl)c(Nc3ccccc3P(C)(C)=O)n2)c(OC)cc1OCc1cccnc1` [Example 10, N-(5-((5-chloro-4-((2-(dimethylphosphoryl)phenyl)amino)pyrimidin-2-yl)amino)-4-methoxy-2-(pyridin-3-ylmethoxy)phenyl)acrylamide], the IC50 (commonly the point on the concentration scale where inhibition reaches its midpoint) in assay [1] (EGFR L858R) is less than 50 nM; in assay [2] (setting [7]), less than 50 nM; in assay [3] (human EGFR native sequence), 50 to 100 nM; in assay [4] (BAF3 PARENTAL cells (control)), not below 250 nM. In addition, the GI50 lay in the range of 101 to 250 nM in assay [5] and 50 to 100 nM in assay [6].
With `COc1ccc(NC(=O)/C=C/CN2CCCC2)cc1Nc1ncc(Cl)c(Nc2ccccc2P(C)(C)=O)n1` [Example 95, (E)—N-(3-((5-chloro-4-((2-(dimethylphosphoryl)phenyl)amino)pyrimidin-2-yl)amino)-4-methoxyphenyl)-4-(pyrrolidin-1-yl)but-2-enamide], the IC50 is less than 50 nM in assay [1] (EGFR L858R), less than 50 nM in assay [2] (setting [7]), not below 250 nM in assay [3] (human EGFR native sequence) and not below 250 nM in assay [4] (BAF3 PARENTAL cells (control)). The results for the GI50 in assay [5] and in assay [6] were not below 250 nM and 50 to 100 nM, respectively.
On to `C=CC(=O)Nc1cc(Nc2ncc(Cl)c(Nc3ccccc3P(C)(C)=O)n2)c(OC)cc1OC1COC1` [Example 9, N-(5-((5-chloro-4-((2-(dimethylphosphoryl)phenyl)amino)pyrimidin-2-yl)amino)-4-methoxy-2-(oxetan-3-yloxy)phenyl)acrylamide], for which the IC50 was less than 50 nM in assay [1] (EGFR L858R), less than 50 nM in assay [2] (setting [7]), not below 250 nM in assay [3] (human EGFR native sequence) and not below 250 nM in assay [4] (BAF3 PARENTAL cells (control)). For the same molecule, the GI50 in assay [5] is 50 to 100 nM; in assay [6], less than 50 nM.
Regarding `C=CC(=O)Nc1cc(Nc2ncc(Cl)c(Nc3ccccc3P(C)(C)=O)n2)c(OC)cc1N1CCCC(N(C)C)C1` (stereo not drawn) [Example 30, N-(5-((5-chloro-4-((2-(dimethylphosphoryl)phenyl)amino)pyrimidin-2-yl)amino)-2-(3-(dimethylamino)piperidin-1-yl)-4-methoxyphenyl)acrylamide], the 50% inhibitory concentration (IC50) is less than 50 nM in assay [1] (EGFR L858R), less than 50 nM in assay [2] (setting [7]), less than 50 nM in assay [3] (human EGFR native sequence) and not below 250 nM in assay [4] (BAF3 PARENTAL cells (control)). In addition, the GI50 in assay [5] and in assay [6] was less than 50 nM each time.
Regarding `C=CC(=O)Nc1cc(Nc2ncc(Cl)c(Nc3ccccc3P(C)(C)=O)n2)c(OC)cc1C#CCN(C)C1CCCC1` [Example 168, N-(5-((5-chloro-4-((2-(dimethylphosphoryl)phenyl)amino)pyrimidin-2-yl)amino)-2-(3-(cyclopentyl(methyl)amino)prop-1-yn-1-yl)-4-methoxyphenyl)acrylamide], the IC50 in assay [1] (setting [8]), in assay [2] (setting [8]), in assay [3] (setting [8]) and in assay [4] (BAF3 parental cells) was less than 50 nM throughout. Besides, the GI50 in assay [5] and in assay [6] was less than 50 nM throughout.
`COc1ccc(NC(=O)CCl)cc1Nc1ncc(C)c(Nc2ccccc2P(C)(C)=O)n1` [Example 141, 2-chloro-N-(3-((4-((2-(dimethylphosphoryl)phenyl)amino)-5-methylpyrimidin-2-yl)amino)-4-methoxyphenyl)acetamide]: the IC50 in assay [1] (setting [8]) was less than 50 nM; in assay [2] (setting [8]) it was less than 50 nM; in assay [3] (setting [8]), less than 50 nM; in assay [4] (BAF3 parental cells) it was not below 250 nM. The GI50 in assay [5] and in assay [6] was less than 50 nM each time.
With `C=CC(=O)Nc1cc(Nc2ncc(Cl)c(Nc3ccccc3P(C)(C)=O)n2)c(OC)cc1OCCCN1CCOCC1` [Example 5, N-(5-((5-chloro-4-((2-(dimethylphosphoryl)phenyl)amino)pyrimidin-2-yl)amino)-4-methoxy-2-(3-morpholinopropoxy)phenyl)acrylamide], the IC50 in assay [1] (EGFR L858R) was less than 50 nM; in assay [2] (setting [7]), less than 50 nM; in assay [3] (human EGFR native sequence), 101 to 250 nM; in assay [4] (BAF3 PARENTAL cells (control)), not below 250 nM. For the same molecule, the GI50 in assay [5] and in assay [6] was 101 to 250 nM in each case.
For the molecule `C=CC(=O)Nc1cc(Nc2ncc(Cl)c(Nc3ccccc3P(C)(C)=O)n2)c(OC)cc1N1CCC(N(CC)CC)C1` (stereo not drawn) [Example 34, N-(5-((5-chloro-4-((2-(dimethylphosphoryl)phenyl)amino)pyrimidin-2-yl)amino)-2-(3-(diethylamino)pyrrolidin-1-yl)-4-methoxyphenyl)acrylamide], the half-inhibitory concentration (IC50) in assay [1] (EGFR L858R) was less than 50 nM; in assay [2] (setting [7]), less than 50 nM; in assay [3] (human EGFR native sequence), less than 50 nM; in assay [4] (BAF3 PARENTAL cells (control)), not below 250 nM. Moreover, the GI50 in assay [5] and in assay [6] was less than 50 nM in each case.
For `C=CC(=O)Nc1ccc(OC)c(Nc2ncc(Cl)c(Nc3ccc(OC4CCOC4)cc3P(C)(C)=O)n2)c1` (stereo not drawn) [Example 99, N-(3-((5-chloro-4-((2-(dimethylphosphoryl)-4-((tetrahydrofuran-3-yl)oxy)phenyl)amino)pyrimidin-2-yl)amino)-4-methoxyphenyl)acrylamide], the IC50 in assay [1] (EGFR L858R) is less than 50 nM; in assay [2] (setting [7]) it was less than 50 nM; in assay [3] (human EGFR native sequence) it was less than 50 nM; in assay [4] (BAF3 PARENTAL cells (control)), not below 250 nM. For the same molecule, the GI50 was 50 to 100 nM in assay [5] and less than 50 nM in assay [6].
As to `CC#CC(=O)Nc1cc(Nc2ncc(Cl)c(Nc3ccccc3P(C)(C)=O)n2)c(OC)cc1N1CCC(N2CCN(C)CC2)CC1` [Example 106, N-(5-((5-chloro-4-((2-(dimethylphosphoryl)phenyl)amino)pyrimidin-2-yl)amino)-4-methoxy-2-(4-(4-methylpiperazin-1-yl)piperidin-1-yl)phenyl)but-2-ynamide], the half-inhibitory concentration (IC50) in assay [1] (setting [8]) was less than 50 nM; in assay [2] (setting [8]) it was less than 50 nM; in assay [3] (setting [8]) it was 50 to 100 nM; in assay [4] (BAF3 parental cells), not below 250 nM. The GI50 in assay [5] and in assay [6] was less than 50 nM throughout.
With `COc1ccc(NC(=O)/C=C\C(=O)N(C)C)cc1Nc1ncc(Cl)c(Nc2ccccc2P(C)(C)=O)n1` [Example 62, N1-(3-((5-chloro-4-((2-(dimethylphosphoryl)phenyl)amino)pyrimidin-2-yl)amino)-4-methoxyphenyl)-N4,N4-dimethylmaleamide], the 50% inhibitory concentration (IC50) in assay [1] (EGFR L858R), in assay [2] (setting [7]), in assay [3] (human EGFR native sequence) and in assay [4] (BAF3 PARENTAL cells (control)) was not below 250 nM in each case. Also, the GI50 in assay [5] and in assay [6] was not below 250 nM each time.
Consider `C=CC(=O)Nc1ccc(Nc2ncc(Cl)c(Nc3cccc(OCCN4CCCCC4)c3P(C)(C)=O)n2)c(OC)c1` [Example 107, N-(4-((5-chloro-4-((2-(dimethylphosphoryl)-3-(2-(piperidin-1-yl)ethoxy)phenyl)amino)pyrimidin-2-yl)amino)-3-methoxyphenyl)acrylamide], for which the concentration for half-maximal inhibition (IC50) in assay [1] (setting [8]) was less than 50 nM; in assay [2] (setting [8]), less than 50 nM; in assay [3] (setting [8]) it was 101 to 250 nM; in assay [4] (BAF3 parental cells), not below 250 nM. In addition, the results for the GI50 in assay [5] and in assay [6] were 101 to 250 nM and less than 50 nM, respectively.
On to `COc1cc(N2CCOCC2)c(NC(=O)C#CCCN2CCCCC2)cc1Nc1ncc(Cl)c(Nc2ccccc2P(C)(C)=O)n1` [Example 101, N-(5-((5-chloro-4-((2-(dimethylphosphoryl)phenyl)amino)pyrimidin-2-yl)amino)-4-methoxy-2-morpholinophenyl)-5-(piperidin-1-yl)pent-2-ynamide], for which the IC50 in assay [1] (EGFR L858R) is less than 50 nM; in assay [2] (setting [7]) it was less than 50 nM; in assay [3] (human EGFR native sequence), less than 50 nM; in assay [4] (BAF3 PARENTAL cells (control)), not below 250 nM. Further, the GI50 in assay [5] and in assay [6] was less than 50 nM in each case.
Turning to `COc1ccc(NC(=O)/C=C/C2(NC(=O)OC(C)(C)C)CC2)cc1Nc1ncc(Cl)c(Nc2ccccc2P(C)(C)=O)n1` [Example 76, (E)-tert-butyl (1-(3-((3-((5-chloro-4-((2-(dimethylphosphoryl)phenyl)amino)pyrimidin-2-yl)amino)-4-methoxyphenyl)amino)-3-oxoprop-1-en-1-yl)cyclopropyl)carbamate], the IC50 in assay [1] (EGFR L858R), in assay [2] (setting [7]), in assay [3] (human EGFR native sequence) and in assay [4] (BAF3 PARENTAL cells (control)) was not below 250 nM each time. For the same molecule, the GI50 in assay [5] and in assay [6] was not below 250 nM each time.
